How the values were obtained:
Malme-3M = test: Growth inhibition of human MALME-3M cells assessed as cell growth at 10 uM after 48 hrs by sulforhodamine B assay; format: functional; details: read-out: Activity
UO-31 = test: Growth inhibition of human UO31 cells assessed as cell growth at 10 uM after 48 hrs by sulforhodamine B assay; format: functional; details: UO-31, 48 h, read-out: Activity
MDA-MB-468 [1] = test: Growth inhibition of human MDA-MB-468 cells after 48 hrs by sulforhodamine B assay; format: functional, cell-based; details: MDA-MB-468, 48 h
NCI-H460 = test: Growth inhibition of human NCI-H460 cells assessed as cell growth at 10 uM after 48 hrs by sulforhodamine B assay; format: functional; details: NCI-H460, 48 h, read-out: Activity
RXF 393 = test: Growth inhibition of human RXF393 cells assessed as cell growth at 10 uM after 48 hrs by sulforhodamine B assay; format: functional; details: RXF 393, 48 h, read-out: Activity
OVCAR-3 = test: Growth inhibition of human OVCAR3 cells after 48 hrs by sulforhodamine B assay; format: functional, cell-based; details: OVCAR-3, 48 h
OVCAR-8 [2] = test: Growth inhibition of human OVCAR8 cells after 48 hrs by sulforhodamine B assay; format: functional; details: OVCAR-8, 48 h
CAKI-1 = test: Growth inhibition of human CAKI-1 cells after 48 hrs by sulforhodamine B assay; format: functional; details: CAKI-1, 48 h
MOLT-4 = test: Growth inhibition of human MOLT4 cells assessed as cell growth at 10 uM after 48 hrs by sulforhodamine B assay; format: functional; details: MOLT-4, 48 h, read-out: Activity
SW-620 = test: Growth inhibition of human SW620 cells after 48 hrs by sulforhodamine B assay; format: functional; details: SW-620, 48 h
UACC-62 = test: Growth inhibition of human UACC62 cells assessed as cell growth at 10 uM after 48 hrs by sulforhodamine B assay; format: functional; details: UACC-62, 48 h, read-out: Activity
SK-OV-3 = test: Growth inhibition of human SKOV3 cells after 48 hrs by sulforhodamine B assay; format: functional; details: SK-OV-3, 48 h
NCI-H226 = test: Growth inhibition of human NCI-H226 cells assessed as cell growth at 10 uM after 48 hrs by sulforhodamine B assay; format: functional; details: NCI-H226, 48 h, read-out: Activity
UACC-257 = test: Growth inhibition of human UACC257 cells assessed as cell growth at 10 uM after 48 hrs by sulforhodamine B assay; format: functional; details: UACC-257, 48 h, read-out: Activity
OVCAR-5 = test: Growth inhibition of human OVCAR5 cells assessed as cell growth at 10 uM after 48 hrs by sulforhodamine B assay; format: functional; details: OVCAR-5, 48 h, read-out: Activity
HOP-92 = test: Growth inhibition of human HOP92 cells after 48 hrs by sulforhodamine B assay; format: functional, cell-based; details: HOP-92, 48 h
786-0 = test: Growth inhibition of human 786-0 cells after 48 hrs by sulforhodamine B assay; format: functional; details: 786-0, 48 h
CCRF-CEM = test: Growth inhibition of human CCRF-CEM cells after 48 hrs by sulforhodamine B assay; format: functional
SK-MEL-5 [3] = test: Growth inhibition of human SK-MEL-5 cells assessed as cell growth at 10 uM after 48 hrs by sulforhodamine B assay; format: functional; details: SK-MEL-5, 48 h, read-out: Activity
NCI-H522 = test: Growth inhibition of human NCI-H522 cells after 48 hrs by sulforhodamine B assay; format: functional; details: NCI-H522, 48 h
RPMI-8226 [4] = test: Growth inhibition of human RPMI8226 cells assessed as cell growth at 10 uM after 48 hrs by sulforhodamine B assay; format: functional; details: RPMI-8226, 48 h, read-out: Activity
SN12C = test: Growth inhibition of human SN12C cells assessed as cell growth at 10 uM after 48 hrs by sulforhodamine B assay; format: functional; details: read-out: Activity
HL-60(TB) = test: Growth inhibition of human HL-60(TB) cells after 48 hrs by sulforhodamine B assay; format: functional; details: HL-60, 48 h
MDA-MB-468 [5] = test: Growth inhibition of human MDA-MB-468 cells assessed as cell growth at 10 uM after 48 hrs by sulforhodamine B assay; format: functional; details: MDA-MB-468, 48 h, read-out: Activity
K562 = test: Growth inhibition of human K562 cells assessed as cell growth at 10 uM after 48 hrs by sulforhodamine B assay; format: functional; details: K562, 48 h, read-out: Activity
OVCAR-4 = test: Growth inhibition of human OVCAR4 cells after 48 hrs by sulforhodamine B assay; format: functional; details: OVCAR-4, 48 h
TK-10 = test: Growth inhibition of human TK10 cells after 48 hrs by sulforhodamine B assay; format: functional; details: TK-10, 48 h
SF-539 = test: Growth inhibition of human SF539 cells assessed as cell growth at 10 uM after 48 hrs by sulforhodamine B assay; format: functional; details: SF-539, 48 h, read-out: Activity
T47D = test: Growth inhibition of human T47D cells assessed as cell growth at 10 uM after 48 hrs by sulforhodamine B assay; format: functional; details: read-out: Activity
IGROV-1 = test: Growth inhibition of human IGROV1 cells assessed as cell growth at 10 uM after 48 hrs by sulforhodamine B assay; format: functional; details: IGROV-1, 48 h, read-out: Activity
SK-MEL-5 [6] = test: Growth inhibition of human SK-MEL-5 cells after 48 hrs by sulforhodamine B assay; format: functional; details: SK-MEL-5, 48 h
OVCAR-8 [7] = test: Growth inhibition of human OVCAR8 cells assessed as cell growth at 10 uM after 48 hrs by sulforhodamine B assay; format: functional; details: OVCAR-8, 48 h, read-out: Activity
RPMI-8226 [8] = test: Growth inhibition of human RPMI8226 cells after 48 hrs by sulforhodamine B assay; format: functional, cell-based; details: RPMI-8226, 48 h
[9] = read-out: LC50 (the source's name)

COc1cc(-c2nn(-c3cccc(NC(=O)c4cccc(C(F)(F)F)c4)c3)cc2-c2ccncc2)ccc1Cl
growth at 10 µM (Malme-3M): 10.1% | growth at 10 µM (UO-31): 25.1% | GI50 (MDA-MB-468 [1]): 1320 nM | IC50 (MDA-MB-468 [1]): 1320 nM | TGI (MDA-MB-468 [1]): 4560 nM | CC50 (MDA-MB-468 [1]; [9]): > 50000 nM | growth at 10 µM (NCI-H460): 4.83% | growth at 10 µM (RXF 393): -42.8% | GI50 (OVCAR-3): 1200 nM | IC50 (OVCAR-3): 1200 nM | TGI (OVCAR-3): 2980 nM | CC50 (OVCAR-3; [9]): > 50000 nM | GI50 (OVCAR-8 [2]): 2000 nM | TGI (OVCAR-8 [2]): > 50000 nM | CC50 (OVCAR-8 [2]; [9]): > 50000 nM | GI50 (CAKI-1): 2010 nM | TGI (CAKI-1): > 50000 nM | CC50 (CAKI-1; [9]): > 50000 nM | growth at 10 µM (MOLT-4): 8.63% | GI50 (SW-620): 2310 nM | TGI (SW-620): > 50000 nM | CC50 (SW-620; [9]): > 50000 nM | growth at 10 µM (UACC-62): 27.2% | GI50 (SK-OV-3): 2290 nM | TGI (SK-OV-3): > 50000 nM | CC50 (SK-OV-3; [9]): > 50000 nM | growth at 10 µM (NCI-H226): 36.2% | growth at 10 µM (UACC-257): 34.5% | growth at 10 µM (OVCAR-5): 49.4% | GI50 (HOP-92): 555 nM | IC50 (HOP-92): 560 nM | LC50 (HOP-92): > 50000 nM | TGI (HOP-92): 3120 nM | GI50 (786-0): 2450 nM | TGI (786-0): > 50000 nM | CC50 (786-0; [9]): > 50000 nM | GI50 (CCRF-CEM): 1450 nM | LC50 (CCRF-CEM): > 50000 nM | TGI (CCRF-CEM): > 50000 nM | growth at 10 µM (SK-MEL-5 [3]): -33% | GI50 (NCI-H522): 1050 nM | LC50 (concentration killing 50% of cells) (NCI-H522): > 50000 nM | TGI (NCI-H522): 3850 nM | growth at 10 µM (RPMI-8226 [4]): -1.13% | growth at 10 µM (SN12C): 34.4% | GI50 (HL-60(TB)): 2020 nM | TGI (HL-60(TB)): > 50000 nM | CC50 (HL-60(TB); [9]): > 50000 nM | growth at 10 µM (MDA-MB-468 [5]): -19.4% | growth at 10 µM (K562): 6.11% | GI50 (OVCAR-4): 2280 nM | LC50 (concentration killing 50% of cells) (OVCAR-4): > 50000 nM | TGI (OVCAR-4): > 50000 nM | GI50 (TK-10): 3240 nM | TGI (TK-10): > 50000 nM | CC50 (TK-10; [9]): > 50000 nM | growth at 10 µM (SF-539): -48.8% | growth at 10 µM (T47D): 29% | growth at 10 µM (IGROV-1): 34% | GI50 (SK-MEL-5 [6]): 978 nM | LC50 (concentration killing 50% of cells) (SK-MEL-5 [6]): 40600 nM | TGI (SK-MEL-5 [6]): 2470 nM | growth at 10 µM (OVCAR-8 [7]): 11.8% | GI50 (RPMI-8226 [8]): 1570 nM | IC50 (RPMI-8226 [8]): 1570 nM | TGI (RPMI-8226 [8]): 26600 nM | CC50 (RPMI-8226 [8]; [9]): > 50000 nM
